Earlier results as cited in patent publication US20250161538A1, “POLYMER-BASED MATERIAL WITH ANTI-BACTERIAL PROPERTIES WITH IMPROVED MECHANICAL STRENGTH FOR DENTAL APPLICATIONS” (priority 2022, published 2025).

System: adult rat pulp tissue
Conditions: in vivo, po

[Ag+] [Ag ions, silver]
cytotoxic effect: induce cytotoxic effect
